{
  "source": "patent US20150080468A1",
  "about": "“COMPOSITION AND METHOD FOR PROCESSING AND DELIVERING BIOAVAILABLE METHIONINE ANALOGS, DERIVATIVES, AND PRECURSORS, THEREOF” (QUALITY LIQUID FEEDS, priority 2013, published 2015)",
  "key": {"[1]": {"details": "cited from earlier work"}, "[2]": {"details": "dairy cows; cited from earlier work"}, "[3]": {"experiment": "Freeze/thaw study: viscosity, flowability and superfusion (Example 2)", "type": "physicochemical", "protocol": "A range of inclusion rates of the HMBi was used in the second example to further investigate the reduction or retardation of the superfusion property of the methionine analog (HMBi) added to a simple feed mill blend molasses liquid product.\nEight formulations were evaluated in regards to product positional stability, product pH, temperature, viscosity as affected by temperature and time. Viscosity measurements were being used to determine flow ability thus whether or not the product can be pumped without external heating. If HMBi is stored in conditions where its temperature drops below 54° F. (12.2° C.), it will solidify or undergo superfusion which will not allow it to be pumped. As you can see in FIG. 6, the HMBi is solid and will remain solid for several hours while thawing. During the thawing process, the HMBi will liquefy with a solid ball surrounded by liquid. This solid ball could potentially plug the inside fixture of a tank not allowing for flow to the pump. During the Example E2 study, it took about eight days of the 100% HMBi in sub-zero temperatures before it underwent superfusion. The container in FIG. 6 had to be shaken quite vigorously to get the HMBi to solidify. It was not moved until the late afternoon of day 7. By the morning of day 8, it was solid.\nThe containers used were clear PET plastic one quart capacity with wide mouth openings. All samples were placed in a sub-zero freezer until the samples were solid. As stated above, it took eight days for the 100% HMBi to undergo the superfusion process, thus all eight samples were frozen solid at about −9° F. (−22.8° C.) which is exactly what was needed for Example E2.\nOnce all samples were frozen, they were moved to a force-draft fume hood to allow warm air to be drawn over the jars to hasten thawing. When the samples were soft enough to get a metal tipped thermometer into the samples, temperatures were taken and recorded. Viscosity was measured once the samples thawed enough; temperatures were also taken at that time. The process of freezing and thawing was repeated once. These samples were not stirred or shaken except for the 100% HMBi sample to get it to undergo superfusion.\nAll formulated samples were mixed by the procedures and using the equipment described in Example E1. The same temperature probe, viscometer, and pH meter were also used.\nObservations and data were collected when the samples had thawed enough to allow for viscosity and temperature measurements. The freezing and thawing was repeated once to confirm results. Laboratory room temperature was between 68 to 70° F. Any product having a viscosity over 5,000 cPs using a spindle sO5 will not flow nor be pumpable without added heat."}, "[4]": {"experiment": "Sub-zero freezing and thawing of 3×, 4× and 100% HMBi after the 56 day study", "type": "physicochemical", "protocol": "Each bar represents a data collection day: 1, 7, 14, 21, 29, 35, 42, 50, and 56 days. […] Mixing or re-circulation every other day will also maintain positional and product stability plus decrease product viscosity. Additionally, lower temperatures were tried for the 3× and 4× plus the HMBi straight or 100% additive after the 56 day study. […] However, the 100% HMBi was frozen solid. The liquid 100% HMBi freezes or solidifies at temperatures below 54° F. or 12° C. when the HMBi liquid is acted upon by an outside force such as mixing or pumping. This “Superfusion” property of the liquid 100% HMBi requires expensive heated storage equipment and plumbing to allow for use in a feed mill environment. After 72 hours in a deep freeze, the 3× and 4× also froze solid."}},
  "note": "“And” between values parts separate entries of the source, which are not always exact repeats. Identical values can stand only once.",
  "data": [
    {"molecule": "CSCCC(O)C(=O)OC(C)C", "note": "(stereo not shown) [100% HMBi, isopropyl ester of 2-hydroxy-4-methylthiobutanoic acid]", "values": [
      {"measurement": "Viscosity at 20° C.", "setting": "[1]; 20 °C", "result": 19.2, "unit": "mPa/s"},
      {"measurement": "Crystallization (solidification, superfusion) temperature", "setting": "[1]; ambient pressure", "result": "below 54 ° F."},
      {"measurement": "pH", "setting": "[1]; in a 1% aqueous solution", "result": 3.6},
      {"measurement": "Solubility", "setting": "[1]; water at 30° C.", "result": 25.1, "unit": "mg/mL"},
      {"measurement": "metabolizable methionine provided", "setting": "[2]", "result": 370, "unit": "g/kg"},
      {"measurement": "rumen available HMB provided", "setting": "[2]", "result": 370, "unit": "g/kg"},
      {"measurement": "Viscosity", "setting": "[3]; Dec. 31, 2009, initial, 77.3-79.6 °F, spindle sO1/sO2", "result": 37, "unit": "cPs"},
      {"measurement": "Viscosity", "setting": "[3]; Jan. 1, 2010, in freezer, -1.0 to 1.3 °F, spindle sO6 (100%: sO1)", "result": "174 cPs and 173.6 cPs"},
      {"measurement": "Viscosity", "setting": "[3]; Jan. 2, 2010, in freezer, -3.9 to -0.2 °F, spindle sO6 (100%: sO1)", "result": 157.6, "unit": "cPs"},
      {"measurement": "Physical state (no viscosity reading)", "setting": "[3]; Jan. 14, 2010, 2:59-3:34 PM, thawing", "result": "solid"},
      {"measurement": "Physical state (no viscosity reading)", "setting": "[3]; Jan. 14, 2010, 2:59-3:34 PM, thawing, listed as 100%", "result": "SOLID"},
      {"measurement": "Physical state (no viscosity reading)", "setting": "[3]; Jan. 14, 2010, 3:50-4:15 PM, thawing", "result": "still solid"},
      {"measurement": "Physical state (no viscosity reading)", "setting": "[3]; Jan. 14, 2010, 3:50-4:15 PM, thawing, listed as 100%", "result": "SOLID"},
      {"measurement": "Physical state (no viscosity reading)", "setting": "[3]; Jan. 14, 2010, 4:40-5:10 PM, thawing, 47.7 °F", "result": "semi-solid"},
      {"measurement": "Physical state (no viscosity reading)", "setting": "[3]; Jan. 14, 2010, 4:40-5:10 PM, thawing, 47.7 °F, listed as 100%", "result": "SEMI-SOLID"},
      {"measurement": "Physical state (no viscosity reading)", "setting": "[3]; Jan. 15, 2010, 4:19-4:51 PM, second thaw, 45.0 °F", "result": "semi-solid"},
      {"measurement": "Physical state (no viscosity reading)", "setting": "[3]; Jan. 15, 2010, 4:19-4:51 PM, second thaw, 45.0 °F, listed as 100%", "result": "SEMI-SOLID"},
      {"measurement": "Physical state (no viscosity reading)", "setting": "[3]; Jan. 15, 2010, 10:55-11:20 AM, second freeze", "result": "solid"},
      {"measurement": "Physical state (no viscosity reading)", "setting": "[3]; Jan. 15, 2010, 10:55-11:20 AM, second freeze, listed as 100%", "result": "SOLID"},
      {"measurement": "Physical state (no viscosity reading)", "setting": "[3]; Jan. 15, 2010, 12:05-12:27, second thaw", "result": "semi-solid"},
      {"measurement": "Physical state (no viscosity reading)", "setting": "[3]; Jan. 15, 2010, 12:05-12:27, second thaw, listed as 100%", "result": "SOLID"},
      {"measurement": "Time in sub-zero temperatures before superfusion", "setting": "[3]; sub-zero freezer, shaken on day 7", "result": "about eight"},
      {"measurement": "Flowability / state", "setting": "[4]; less than 0° F. or -17.8° C. for 24 hours", "result": "frozen solid"},
      {"measurement": "Further time until return to a liquid state", "setting": "[4]; thawing after deep freeze", "result": "about 12 hours"},
      {"measurement": "Temperature at return to a liquid state", "setting": "[4]; thawing after deep freeze", "result": "approximately 56 ° F."}
    ]}
  ]
}
